Test results taken from US10597388B2, “Pyridazinone herbicides” (FMC CORPORATION, priority 2014, dated 2020).

Experiments:
Type in all cases: in vivo
kochia (Kochia scoparia) = test: Test A greenhouse herbicide test, pre- and postemergence
Method in brief: (§1)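 Visual injury ratings, 0 (no effect) to 100 (complete control), versus untreated plants after roughly 10 d in a greenhouse. Compounds, formulated in a surfactant-containing non-phytotoxic solvent, were sprayed on loam–sand soil after sowing (pre) or on one- to two-leaf plants 2–10 cm tall (post).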

[1] = system: ryegrass, Italian (Italian ryegrass, Lolium multiflorum); test: as above
Method in brief: as §1

[2] = system: wheat (Triticum aestivum); test: as above; details: Postemergence; for Plant response rating, Wheat: 125 g ai/ha, 0 to 100 scale where 0 is no effect and 100 is complete control; for Wheat plant response rating: 0 to 100 scale, 0 is no effect, 100 is complete control
Method in brief: as §1

[3] = system: ducksalad (Heteranthera limosa); test: Test B flooded paddy test; details: 250 g ai/ha, Flood; visual rating on scale of 0 to 100 where 0 is no effect and 100 is complete control; 13 to 15 d after treatment
Method in brief: (§2)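 Ratings use a 0-100 visual scale, where 100 is complete control, and compare treated plants with controls after 13 to 15 d of greenhouse growth. Compound went straight into paddy water kept 3 cm over the soil surface, applied to seedlings at the 2-leaf stage.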

rice (Oryza sativa) = test: Test B flooded paddy test; details: 250 g ai/ha, Flood; visual rating on scale of 0 to 100 where 0 is no effect and 100 is complete control; 13 to 15 d after treatment
Method in brief: as §2

[4] = system: barnyardgrass (Echinochloa crus-galli); test: Test B flooded paddy test; details: 250 g ai/ha, Flood; visual rating on scale of 0 to 100 where 0 is no effect and 100 is complete control; 13 to 15 d after treatment
Method in brief: as §2

[5] = system: sedge, umbrella (small-flower umbrella sedge, Cyperus difformis); test: Test B flooded paddy test; details: 250 g ai/ha, Flood; visual rating on scale of 0 to 100 where 0 is no effect and 100 is complete control; 13 to 15 d after treatment
Method in brief: as §2

[6] = system: chickweed (common chickweed, Stellaria media); test: Test C greenhouse herbicide test, postemergence
Method in brief: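 Seedlings are raised in pots of peat moss–vermiculite medium with starter nutrients, then receive postemergence test chemical at the 1- to 4-leaf stage. They are kept in the greenhouse 13 to 15 d and scored visually versus controls, 0 meaning no effect and 100 complete control.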

[7] = Postemergence, 125 g ai/ha, 0 to 100 scale where 0 is no effect and 100 is complete control
[8] = Postemergence, 500 g ai/ha, 0 to 100 scale, 0 is no effect, 100 is complete control
[9] = Preemergence, 125 g ai/ha, 0 to 100 scale where 0 is no effect and 100 is complete control
[10] = Preemergence, 500 g ai/ha, 0 to 100 scale, 0 no effect, 100 complete control
[11] = Postemergence, 31 g ai/ha, 0 to 100 scale (0 no effect, 100 complete control)
[12] = Postemergence, 125 g ai/ha, scale 0 to 100, 0 is no effect, 100 is complete control
[13] = Postemergence, 250 g ai/ha, scale 0 to 100, 0 no effect, 100 complete control, 13 to 15 d
[14] = postemergence, 62 g ai/ha, scale 0 to 100, 0 no effect, 100 complete control
[15] = Postemergence, 1000 g ai/ha, 0 to 100 scale, 0 is no effect, 100 is complete control
[16] = Preemergence, 1000 g ai/ha, 0 to 100 scale, 0 no effect, 100 complete control
[17] = Preemergence, 500 g ai/ha, 0 to 100 scale where 0 is no effect and 100 is complete control

COc1nn(C)c(=O)c(-c2c(C)ccc3ccccc23)c1O [Compound 54]
Plant response rating, Kochia (kochia (Kochia scoparia); [7]): 100
Kochia plant response rating (kochia (Kochia scoparia); [8]): 100
Kochia plant response rating (kochia (Kochia scoparia); [9]): 50
Plant response rating, Kochia (kochia (Kochia scoparia); [10]): 100
Plant response rating, Ryegrass, Italian [1, 7]: 60
Ryegrass, Italian plant response rating [1, 8]: 100
Ryegrass, Italian plant response rating [1, 9]: 30
Plant response rating, Ryegrass, Italian [1, 10]: 100
Plant response rating, Wheat [2]: 20
Wheat plant response rating ([2]; 500 g ai/ha): 20
Plant response rating, Ducksalad [3]: 0
Plant response rating, Rice (rice (Oryza sativa)): 0
Plant response rating, Barnyardgrass [4]: 0
Plant response rating, Sedge, Umbrella [5]: 0
Chickweed plant response rating [6, 11]: 95
Plant response rating, Chickweed [6, 12]: 95
Plant response rating, Chickweed [6, 13]: 100
Chickweed plant response rating [6, 14]: 95

Cc1ccc2ccccc2c1-c1c(O)cnn(C)c1=O [Compound 56]
Plant response rating, Kochia (kochia (Kochia scoparia); [7]): 90
Kochia plant response rating (kochia (Kochia scoparia); [8]): 100
Kochia plant response rating (kochia (Kochia scoparia); [9]): 40
Plant response rating, Kochia (kochia (Kochia scoparia); [10]): 90
Plant response rating, Ryegrass, Italian [1, 7]: 90
Ryegrass, Italian plant response rating [1, 8]: 100
Ryegrass, Italian plant response rating [1, 9]: 100
Plant response rating, Ryegrass, Italian [1, 10]: 100
Plant response rating, Wheat [2]: 10
Wheat plant response rating ([2]; 500 g ai/ha): 50
Plant response rating, Ducksalad [3]: 0
Plant response rating, Rice (rice (Oryza sativa)): 0
Plant response rating, Barnyardgrass [4]: 0
Plant response rating, Sedge, Umbrella [5]: 0
Chickweed plant response rating [6, 11]: 5
Plant response rating, Chickweed [6, 12]: 55
Plant response rating, Chickweed [6, 13]: 70
Chickweed plant response rating [6, 14]: 10

Cc1ccc2ccccc2c1-c1c(O)c(C)nn(C)c1=O [Compound 59]
Plant response rating, Kochia (kochia (Kochia scoparia); [7]): 100
Kochia plant response rating (kochia (Kochia scoparia); [8]): 100
Kochia plant response rating (kochia (Kochia scoparia); [9]): 90
Plant response rating, Kochia (kochia (Kochia scoparia); [10]): 90
Plant response rating, Ryegrass, Italian [1, 7]: 100
Ryegrass, Italian plant response rating [1, 8]: 100
Ryegrass, Italian plant response rating [1, 9]: 90
Plant response rating, Ryegrass, Italian [1, 10]: 100
Plant response rating, Wheat [2]: 50
Wheat plant response rating ([2]; 500 g ai/ha): 100
Plant response rating, Ducksalad [3]: 0
Plant response rating, Rice (rice (Oryza sativa)): 0
Plant response rating, Barnyardgrass [4]: 0
Plant response rating, Sedge, Umbrella [5]: 0
Chickweed plant response rating [6, 11]: 90
Plant response rating, Chickweed [6, 12]: 98
Plant response rating, Chickweed [6, 13]: 98
Chickweed plant response rating [6, 14]: 98

Cc1ccc2ccc(C)c(-c3c(O)c(C)nn(C)c3=O)c2c1 [Compound 60]
Kochia plant response rating (kochia (Kochia scoparia); [15]): 100
Plant response rating, Kochia (kochia (Kochia scoparia); [16]): 80
Ryegrass, Italian plant response rating [1, 15]: 100
Plant response rating, Ryegrass, Italian [1, 16]: 100
Wheat plant response rating ([2]; 1000 g ai/ha): 70
Plant response rating, Ducksalad [3]: 20
Plant response rating, Rice (rice (Oryza sativa)): 35
Plant response rating, Barnyardgrass [4]: 35
Plant response rating, Sedge, Umbrella [5]: 30
Chickweed plant response rating [6, 11]: 90
Plant response rating, Chickweed [6, 12]: 95
Plant response rating, Chickweed [6, 13]: 98
Chickweed plant response rating [6, 14]: 95

Cc1nn(C)c(=O)c(-c2c(C)sc3ccccc23)c1O [Compound 65]
Plant response rating, Kochia (kochia (Kochia scoparia); [7]): 90
Kochia plant response rating (kochia (Kochia scoparia); [8]): 90
Kochia plant response rating (kochia (Kochia scoparia); [9]): 60
Plant response rating, Kochia (kochia (Kochia scoparia); [10]): 90
Plant response rating, Ryegrass, Italian [1, 7]: 90
Ryegrass, Italian plant response rating [1, 8]: 100
Ryegrass, Italian plant response rating [1, 9]: 90
Plant response rating, Ryegrass, Italian [1, 10]: 100
Plant response rating, Wheat [2]: 0
Wheat plant response rating ([2]; 500 g ai/ha): 0
Plant response rating, Ducksalad [3]: 0
Plant response rating, Rice (rice (Oryza sativa)): 0
Plant response rating, Barnyardgrass [4]: 0
Plant response rating, Sedge, Umbrella [5]: 0
Chickweed plant response rating [6, 11]: 55
Plant response rating, Chickweed [6, 12]: 90
Plant response rating, Chickweed [6, 13]: 90
Chickweed plant response rating [6, 14]: 90

Cc1cc(C)c2sc(C)c(-c3c(OC(=O)OC(C)C)c(C)nn(C)c3=O)c2c1 [Compound 67]
Plant response rating, Kochia (kochia (Kochia scoparia); [7]): 20
Kochia plant response rating (kochia (Kochia scoparia); [8]): 30
Kochia plant response rating (kochia (Kochia scoparia); [9]): 20
Plant response rating, Kochia (kochia (Kochia scoparia); [10]): 20
Plant response rating, Ryegrass, Italian [1, 7]: 70
Ryegrass, Italian plant response rating [1, 8]: 90
Ryegrass, Italian plant response rating [1, 9]: 90
Plant response rating, Ryegrass, Italian [1, 10]: 100
Plant response rating, Wheat [2]: 0
Wheat plant response rating ([2]; 500 g ai/ha): 0
Plant response rating, Ducksalad [3]: 0
Plant response rating, Rice (rice (Oryza sativa)): 0
Plant response rating, Barnyardgrass [4]: 0
Plant response rating, Sedge, Umbrella [5]: 0
Chickweed plant response rating [6, 11]: 90
Plant response rating, Chickweed [6, 12]: 95
Plant response rating, Chickweed [6, 13]: 95
Chickweed plant response rating [6, 14]: 95

CCOC(=O)Oc1c(C)nn(C)c(=O)c1-c1c(C)ccc2ccccc12 [Compound 73]
Plant response rating, Kochia (kochia (Kochia scoparia); [7]): 90
Kochia plant response rating (kochia (Kochia scoparia); [8]): 100
Kochia plant response rating (kochia (Kochia scoparia); [9]): 50
Plant response rating, Kochia (kochia (Kochia scoparia); [17]): 100
Plant response rating, Ryegrass, Italian [1, 7]: 100
Ryegrass, Italian plant response rating [1, 8]: 100
Ryegrass, Italian plant response rating [1, 9]: 100
Plant response rating, Ryegrass, Italian [1, 17]: 100
Plant response rating, Wheat [2]: 40
Wheat plant response rating ([2]; 500 g ai/ha): 90
Plant response rating, Ducksalad [3]: 0
Plant response rating, Rice (rice (Oryza sativa)): 0
Plant response rating, Barnyardgrass [4]: 0
Plant response rating, Sedge, Umbrella [5]: 0
Chickweed plant response rating [6, 11]: 90
Plant response rating, Chickweed [6, 12]: 95
Plant response rating, Chickweed [6, 13]: 95
Chickweed plant response rating [6, 14]: 90

COC(=O)Oc1c(C)nn(C)c(=O)c1-c1c(C)sc2c(C)cc(C)cc12 [Compound 81]
Plant response rating, Kochia (kochia (Kochia scoparia); [7]): 60
Kochia plant response rating (kochia (Kochia scoparia); [8]): 100
Kochia plant response rating (kochia (Kochia scoparia); [9]): 30
Plant response rating, Kochia (kochia (Kochia scoparia); [17]): 100
Plant response rating, Ryegrass, Italian [1, 7]: 100
Ryegrass, Italian plant response rating [1, 8]: 100
Ryegrass, Italian plant response rating [1, 9]: 100
Plant response rating, Ryegrass, Italian [1, 17]: 100
Plant response rating, Wheat [2]: 0
Wheat plant response rating ([2]; 500 g ai/ha): 0
Plant response rating, Ducksalad [3]: 70
Plant response rating, Rice (rice (Oryza sativa)): 60
Plant response rating, Barnyardgrass [4]: 60
Plant response rating, Sedge, Umbrella [5]: 80
Chickweed plant response rating [6, 11]: 90
Plant response rating, Chickweed [6, 12]: 95
Plant response rating, Chickweed [6, 13]: 95
Chickweed plant response rating [6, 14]: 90

CCOC(=O)Oc1c(C)nn(C)c(=O)c1-c1c(C)sc2ccc(C)cc12 [Compound 82]
Plant response rating, Kochia (kochia (Kochia scoparia); [7]): 30
Kochia plant response rating (kochia (Kochia scoparia); [8]): 80
Kochia plant response rating (kochia (Kochia scoparia); [9]): 70
Plant response rating, Kochia (kochia (Kochia scoparia); [17]): 90
Plant response rating, Ryegrass, Italian [1, 7]: 70
Ryegrass, Italian plant response rating [1, 8]: 80
Ryegrass, Italian plant response rating [1, 9]: 80
Plant response rating, Ryegrass, Italian [1, 17]: 90
Plant response rating, Wheat [2]: 0
Wheat plant response rating ([2]; 500 g ai/ha): 0
Plant response rating, Ducksalad [3]: 0
Plant response rating, Rice (rice (Oryza sativa)): 0
Plant response rating, Barnyardgrass [4]: 0
Plant response rating, Sedge, Umbrella [5]: 0
Chickweed plant response rating [6, 11]: 90
Plant response rating, Chickweed [6, 12]: 90
Plant response rating, Chickweed [6, 13]: 98
Chickweed plant response rating [6, 14]: 90

CCOC(=O)Oc1c(C)nn(C)c(=O)c1-c1c(C)sc2c(C)cc(C)cc12 [Compound 83]
Plant response rating, Kochia (kochia (Kochia scoparia); [7]): 70
Kochia plant response rating (kochia (Kochia scoparia); [8]): 100
Kochia plant response rating (kochia (Kochia scoparia); [9]): 30
Plant response rating, Kochia (kochia (Kochia scoparia); [17]): 100
Plant response rating, Ryegrass, Italian [1, 7]: 90
Ryegrass, Italian plant response rating [1, 8]: 100
Ryegrass, Italian plant response rating [1, 9]: 100
Plant response rating, Ryegrass, Italian [1, 17]: 100
Plant response rating, Wheat [2]: 0
Wheat plant response rating ([2]; 500 g ai/ha): 20
Plant response rating, Ducksalad [3]: 70
Plant response rating, Rice (rice (Oryza sativa)): 30
Plant response rating, Barnyardgrass [4]: 60
Plant response rating, Sedge, Umbrella [5]: 90
Chickweed plant response rating [6, 11]: 90
Plant response rating, Chickweed [6, 12]: 95
Plant response rating, Chickweed [6, 13]: 100
Chickweed plant response rating [6, 14]: 95
